{
  "source": "patent US7531333B2",
  "about": "“Process for producing isoprenoid compounds by microorganisms and a method for screening compounds with antibiotic or weeding activity” (Kyowa Hakko Kogyo Co., Ltd., priority 1998, dated 2009)",
  "key": {"[1]": {"biological_target": "T1, 1-deoxy-D-xylulose 5-phosphate reductoisomerase (Escherichia coli, UniProt P45568)", "T1 construct": "made in house; host or cells: E. coli M15/pREP4", "T1 sequence (P45568 1-398 R277V/T278R/P279Q/I280L/A281P/H282T/T283P/M284W)": "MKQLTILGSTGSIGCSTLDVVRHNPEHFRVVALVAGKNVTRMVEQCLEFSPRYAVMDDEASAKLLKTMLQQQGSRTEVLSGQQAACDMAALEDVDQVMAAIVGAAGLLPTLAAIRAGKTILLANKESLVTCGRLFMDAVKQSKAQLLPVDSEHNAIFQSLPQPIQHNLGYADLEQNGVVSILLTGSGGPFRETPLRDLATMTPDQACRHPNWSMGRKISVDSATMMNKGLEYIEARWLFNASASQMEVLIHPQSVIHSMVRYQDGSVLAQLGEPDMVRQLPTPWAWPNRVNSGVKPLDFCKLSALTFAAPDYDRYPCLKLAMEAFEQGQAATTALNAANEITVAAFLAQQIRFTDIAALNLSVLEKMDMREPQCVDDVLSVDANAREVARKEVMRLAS", "test": "Enzymatic activity of yaeM gene product (NADPH decrease, absorbance at 340 nm)", "assay_type": "biochemical, E. coli", "method": "(§1) […] of 1-deoxy-D-xylulose 5-phosphate (final concentration) synthesized as described above was added to 1 ml of a reaction solution containing […] Tris-hydrochloric acid (pH 7.5), […] MmCl2, […] NADPH and yaeM gene product obtained in Example 8 (2) ? , and then incubated at 37° C.\nThe enzymological characteristics of 1-deoxy-D-xylulose 5-phosphate reductoisomerase were examined using 1 ml of the reaction system as described in Example 8 (2) ? . Here, 1 unit is defined as the activity to oxidize 1 mmol of NADPH per a minute."}, "yaeM-deleted strain": {"tested_on": "yaeM-deleted strain", "test": "Cell growth of yaeM-disrupted strain on LB agar with 2-C-methyl-D-erythritol", "assay_type": "cell-based, E. coli", "details": "1 g/l of 2-C-methyl-D-erythritol, 37° C., 2 days", "method": "(§2) The yaeM-disrupted strain produced as described above and its parent strain FS1576 were spread on LB agar medium and the same medium containing 1 g/l of 2-C-methyl-D-erythritol, then cultured at 37° C."}, "FS1576": {"tested_on": "FS1576", "test": "Cell growth of parent strain FS1576 on LB agar with 2-C-methyl-D-erythritol", "assay_type": "cell-based, E. coli", "details": "FS1576, 1 g/l of 2-C-methyl-D-erythritol, 37° C., 2 days", "method": "as §2"}, "[2]": {"biological_target": "T1, 1-deoxy-D-xylulose 5-phosphate reductoisomerase", "assay_type": "biochemical, E. coli", "details": "various concentrations, 37° C., FIG. 4", "method": "as §1"}, "E. coli W3110": {"tested_on": "E. coli W3110", "test": "Growth of E. coli W3110 on LB agar medium containing fosmidomycin", "assay_type": "cell-based", "details": "37° C., two days", "method": "E. coli W3110 was spread on LB agar medium, the same medium containing 3.13 mg/l of fosmidomycin, and the same medium containing 3.13 mg/l of fosmidomycin and 0.25 g/l of 2-C-methyl-D-erythritol, then cultured at 37° C."}, "[3]": {"details": "additive at 1 mol/l, N.D. = no activity was detected, 1 unit = activity to oxidize 1 mmol of NADPH per minute"}},
  "note": "Where two headings read alike, the source gives them in different places.",
  "data": [
    {"smiles": "O=S(=O)([O-])[O-].[Zn+2]", "note": "[ZnSO4]", "values": [
      {"measurement": "Specific Activity", "setting": "[1]; [3]", "value": 0.3, "unit": "units/mg protein"}
    ]},
    {"smiles": "NC(=O)C1=CN([C@@H]2O[C@H](COP(=O)(O)OP(=O)(O)OC[C@H]3O[C@@H](n4cnc5c(N)ncnc54)[C@H](O)[C@@H]3O)[C@@H](O)[C@H]2O)C=CC1", "note": "[NADH]", "values": [
      {"measurement": "Activity when NADPH was replaced with NADH", "setting": "[1]; relative to activity with NADPH", "value": "below 1/100"}
    ]},
    {"smiles": "[Cl-].[Cl-].[Co+2]", "note": "[CoCl2]", "values": [
      {"measurement": "Specific Activity", "setting": "[1]", "value": 6.0, "unit": "units/mg protein"}
    ]},
    {"smiles": "NC(=O)c1ccc[n+]([C@@H]2O[C@H](COP(=O)([O-])OP(=O)(O)OC[C@H]3O[C@@H](n4cnc5c(N)ncnc54)[C@H](OP(=O)(O)O)[C@@H]3O)[C@@H](O)[C@H]2O)c1", "note": "[NADP]", "values": [
      {"measurement": "Km", "setting": "[1]; in the presence of MnCl2", "value": 7.4, "unit": "µM"}
    ]},
    {"smiles": "[Ca+2].[Cl-].[Cl-]", "note": "[CaCl2]", "values": [
      {"measurement": "Specific Activity", "setting": "[1]; [3]", "value": 0.2, "unit": "units/mg protein"}
    ]},
    {"smiles": "C[C@](O)(CO)[C@H](O)CO", "note": "[ME, 2-C-methyl-D-erythritol]", "values": [
      {"measurement": "Cell growth on LB + ME", "setting": "yaeM-deleted strain", "value": "+"},
      {"measurement": "Cell growth on LB + ME", "setting": "FS1576", "value": "+"}
    ]},
    {"smiles": "CC(=O)[C@@H](O)[C@H](O)CO", "note": "[1-deoxy-D-xylulose]", "values": [
      {"measurement": "Reaction when used as substrate instead of 1-deoxy-D-xylulose 5-phosphate", "setting": "[1]", "value": "No reaction occurred"}
    ]},
    {"smiles": "O=S(=O)([O-])[O-].[Ni+2]", "note": "[NiSO4]", "values": [
      {"measurement": "Specific Activity", "setting": "[1]; [3]", "value": 0.2, "unit": "units/mg protein"}
    ]},
    {"smiles": "[Cl][Mn][Cl]", "note": "[MnCl2]", "values": [
      {"measurement": "Specific Activity", "setting": "[1]; [3]", "value": 11.8, "unit": "units/mg protein"}
    ]},
    {"smiles": "O=CN(O)CCCP(=O)(O)O", "note": "[fosmidomycin, 3-(N-formyl-N-hydroxyamino)propylphosphonic acid]", "values": [
      {"measurement": "Inhibition of 1-deoxy-D-xylulose 5-phosphate reductoisomerase", "setting": "[2]", "value": "inhibit"},
      {"measurement": "Growth of the microorganism on LB agar medium", "setting": "E. coli W3110; 3.13 mg/l of fosmidomycin and 0.25 g/l of 2-C-methyl-D-erythritol", "value": "could grow"},
      {"measurement": "Growth of the microorganism on LB agar medium", "setting": "E. coli W3110; 3.13 mg/l of fosmidomycin only", "value": "no microorganism grew"}
    ]},
    {"smiles": "[Cl-].[Cl-].[Mg+2]", "note": "[MgCl2]", "values": [
      {"measurement": "Specific Activity", "setting": "[1]; [3]", "value": 4.0, "unit": "units/mg protein"}
    ]}
  ]
}
